Assay results published in US20220296866A1, “METHODS, DEVICES AND COMPOSITIONS FOR LOCAL DELIVERY” (POLY-MED, INC., priority 2019, published 2022).

Experiments:
[1] = Stability of Mitomycin C in PDLG film (colour change); format: physicochemical; conditions: evidenced by a change in color from purple to tan
Description: SVG12 (Poly-Med, Inc.) and PDLG (Purasorb PDLG 7507, Corbion) were separately dissolved in chloroform, each at 15% concentration (wt/vol %). Solutions were divided to create different drug-loading solutions according to the associated table. In short, lidocaine (Sigma Aldrich) was added to a solution of SVG12 at a concentration of 134 mg drug per 1 gram of SVG12. Dexamethasone was added to a separate solution of PDLG at a concentration of 29 mg drug per 1 gram of PDLG. Mitomycin C was added to a separate solution of PDLG at a concentration of 6.8 mg drug per 1 gram of PDLG. All solutions were held at room temperature on a roller until completely dissolved. The solutions were cast into thin films using a 25-mil film casting blade and allowed to dry.
Drug-loaded films were cut into rectangles and placed on SVG12-only films. In the case of the dexamethasone- and lidocaine-loaded sample, the cut films were stacked one on top of the other. In the case of mytomycin C-loaded films, 4 drug-loaded films were stacked one on top of the other to increase total delivery payload. On top of the drug-eluting film, a separate SVG12-only film was added which was larger in size. Degradable medical devices and/or compositions were clamped between rubber films between glass plates, clamped to apply pressure, and heated at 50° C. for 3 hours to create a seal between the encapsulation films. […]

[2] = In vitro drug release evaluation of Mitomycin C-eluting devices in artificial urine; format: physicochemical
Description: Devices prepared from earlier examples were characterized for drug release profile in artificial urine to predict in vivo behavior in a human bladder. First, artificial urine was prepared according to ASTM F1828, with a modified buffer. Drug-containing samples were placed in individual 20 mL glass vials and 15 mL artificial urine added to cover the sample. This volume of artificial urine was sufficiently above the Mitomycin C solubility limit for each sample so as not to interfere with release analysis. Filled glass vials were placed in a 37° C. incubator on a 1 Hz orbital bed. As predetermined time points, a total changeover of artificial urine was performed, with the exchanged urine analyzed by HPLC to determine total release of Mitomycin C per time period.
HPLC analysis was performed using a Waters ACQUITY ArcHPLC with C18 column using an isocratic method with 71:29 water:methanol mobile phase. Peaks were compared against a standard curve to determine concentration in the sample, and calculated to total percentage release based on fluid volume and loading of Mitomycin C in the sample. […] A secondary release of drug is anticipated as the OC9 and SVG12 materials experience degradation.

Q: Which results are given for CO[C@@]12[C@H](COC(N)=O)C3=C(C(=O)C(C)=C(N)C3=O)N1C[C@@H]1N[C@@H]12 [Mitomycin C]?
A: stability of Mitomycin C in polymer [1]: poor stability; Mitomycin C release compared with the free gel ([2]; OC9/PEG 400 gel placed in the core of the stent, 37° C.): Further attenuation; Mitomycin C release profile after the initial release ([2]; gel containing 2 parts OC9 and 1 part PEG 400, 37° C., after about 3 days): extended release plateau; total percentage release of Mitomycin C ([2]; gel containing 2 parts OC9 and 1 part PEG 400, 37° C., over about 3 days): 13%
